# Columns and labels:
# Format in all cases: in vivo
# Amaranthus retroflexus [1] = assay: Post-emergence herbicidal action, AMARE; conditions: 80 g/ha, Table D
# Summary of the method: (§1)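 Visual percent activity relative to untreated controls, assessed about 3 weeks after foliar treatment, where 0% equals control growth and 100% equals death. Compounds, as wettable powders or emulsion concentrates, are sprayed onto one-leaf-stage plants in sandy loam.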
# Amaranthus retroflexus [2] = assay: Pre-emergence herbicidal action, AMARE; conditions: dosage 320 g/ha, scored visually after 3 weeks vs untreated controls
# Summary of the method: (§2)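 Percent herbicidal activity rated by eye 3 weeks after pre-emergence soil-surface application, compared with untreated pots. Seeds sat under sandy loam; sprays carried 0.2% wetting agent.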
# ECHCG = assay: Post-emergence herbicidal action, ECHCG; conditions: 80 g/ha, Table C
# Summary of the method: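 Weed and crop plants grown in sandy loam in the greenhouse, treated at the one-leaf stage 2–3 weeks after sowing. Damage scored visually after about 3 weeks vs untreated controls (0% = control, 100% = dead).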
# Abutilon theophrasti [3] = assay: Post-emergence herbicidal action, ABUTH; conditions: 80 g/ha, Table D
# Summary of the method: as §1
# Stellaria media [4] = assay: Pre-emergence herbicidal action, STEME; conditions: dosage 320 g/ha, scored visually after 3 weeks vs untreated controls
# Summary of the method: as §2
# Stellaria media [5] = assay: Post-emergence herbicidal action, STEME; conditions: 80 g/ha, Table D
# Summary of the method: as §1
# Abutilon theophrasti [6] = assay: Pre-emergence herbicidal action, ABUTH; conditions: dosage 320 g/ha, scored visually after 3 weeks vs untreated controls
# Summary of the method: as §2
# Viola tricolor [7] = assay: Pre-emergence herbicidal action, VIOTR; conditions: dosage 320 g/ha, scored visually after 3 weeks vs untreated controls
# Summary of the method: as §2
# Setaria viridis [8] = assay: Pre-emergence herbicidal action, SETVI; conditions: dosage 320 g/ha, scored visually after 3 weeks vs untreated controls
# Summary of the method: as §2
# Cyperus serotinus = assay: Pre-emergence herbicidal action, CYPES; conditions: dosage 320 g/ha, scored visually after 3 weeks vs untreated controls
# Summary of the method: as §2
# Matricaria inodora = assay: Pre-emergence herbicidal action, MATIN; conditions: dosage 320 g/ha, scored visually after 3 weeks vs untreated controls
# Summary of the method: as §2
# Alopecurus myosuroides [9] = assay: Post-emergence herbicidal action, ALOMY; conditions: 80 g/ha, Table C
# Summary of the method: as §1
# Pharbitis purpureum = assay: Post-emergence herbicidal action, PHBPU; conditions: 80 g/ha, Table D
# Summary of the method: as §1
# Alopecurus myosuroides [10] = assay: Pre-emergence herbicidal action, ALOMY; conditions: dosage 320 g/ha, scored visually after 3 weeks vs untreated controls
# Summary of the method: as §2
# Viola tricolor [11] = assay: Post-emergence herbicidal action, VIOTR; conditions: 80 g/ha, Table D
# Summary of the method: as §1
# Setaria viridis [12] = assay: Post-emergence herbicidal action, SETVI; conditions: 80 g/ha, Table C
# Summary of the method: as §1
# Avena fatua [13] = assay: Pre-emergence herbicidal action, AVEFA; conditions: dosage 320 g/ha, scored visually after 3 weeks vs untreated controls
# Summary of the method: as §2
# Avena fatua [14] = assay: Post-emergence herbicidal action, AVEFA; conditions: 80 g/ha, Table C
# Summary of the method: as §1
Structure (SMILES),herbicidal activity AMARE (Amaranthus retroflexus [1]),herbicidal activity AMARE (Amaranthus retroflexus [2]),Herbicidal activity ECHCG (ECHCG),herbicidal activity ABUTH (Abutilon theophrasti [3]),Herbicidal activity STEME (Stellaria media [4]),Herbicidal activity STEME (Stellaria media [5]),herbicidal activity ABUTH (Abutilon theophrasti [6]),herbicidal activity VIOTR (Viola tricolor [7]),herbicidal activity SETVI (Setaria viridis [8]),herbicidal activity CYPES (Cyperus serotinus),herbicidal activity MATIN (Matricaria inodora),herbicidal activity ALOMY (Alopecurus myosuroides [9]),Herbicidal activity PHBPU (Pharbitis purpureum),herbicidal activity ALOMY (Alopecurus myosuroides [10]),herbicidal activity VIOTR (Viola tricolor [11]),herbicidal activity SETVI (Setaria viridis [12]),herbicidal activity AVEFA (Avena fatua [13]),herbicidal activity AVEFA (Avena fatua [14])
Cn1nnnc1NC(=O)c1ccc(C(F)F)c([S+](C)[O-])c1F (stereo not drawn) [Example 1-38],90%,100%,100%,100%,100%,100%,100%,100%,100%,90%,100%,90%,90%,100%,100%,100%,100%,90%
Cn1nnnc1NC(=O)c1ccc(C(F)F)c(S(C)(=O)=O)c1F [Example 1-39],100%,100%,90%,90%,100%,100%,100%,100%,100%,90%,100%,90%,100%,90%,100%,100%,100%,80%
CCSc1c(C(F)F)ccc(C(=O)Nc2nnnn2C)c1F [Example 1-40],100%,100%,100%,100%,100%,90%,100%,100%,100%,100%,100%,90%,100%,100%,90%,100%,90%,80%
CC[S+]([O-])c1c(C(F)F)ccc(C(=O)Nc2nnnn2C)c1F (stereo not drawn) [Example 1-41],100%,100%,90%,100%,100%,100%,100%,100%,100%,100%,100%,90%,90%,100%,100%,90%,100%,100%
CCSc1c(C(F)F)ccc(C(=O)Nc2nnnn2C)c1Cl [Example 1-52],100%,100%,90%,100%,100%,100%,100%,100%,100%,90%,100%,100%,100%,100%,100%,90%,100%,100%
